PMC5738391, “Three classes of ligands each bind to distinct sites on the orphan G protein-coupled receptor GPR84” (Scientific Reports, 2017)

Columns and labels:
[1] = test system: patients with ulcerative colitis; set-up: method as in doi:10.1093/ecco-jcc/jjx002.734; details: cited from earlier work
[2] = molecular target: T1, human GPR84 (FLAG-hGPR84-eYFP) (Homo sapiens, UniProt Q9NQS5); experiment: [35S]GTPγS binding, membranes of cells expressing FLAG-hGPR84-eYFP; type: biochemical
T1 construct: expressed in transfected cells
Experimental: Membranes were generated from Flp-In T-REx HEK293 cells treated with 100 ng/mL doxycycline to induce expression of the receptor construct of interest. Cells were washed with ice-cold phosphate-buffered saline, removed from dishes by scraping and centrifuged at 3000 rpm for 5 min at 4 °C. Pellets were resuspended in TE buffer (10 mM Tris-HCl, 0.1 mM EDTA; pH 7.5) containing a protease inhibitor mixture (Roche Applied Science, West Sussex, UK) and homogenized with a 5 ml hand-held homogenizer. This material was centrifuged at 1500 rpm for 5 min at 4 °C and the supernatant was further centrifuged at 50000 rpm for 45 min at 4 °C. The resulting pellet was resuspended in TE buffer and protein content was assessed using a BCA protein assay kit (Pierce, Fisher Scientific, Loughborough, UK).
The reaction was then initiated with addition of [^35S]GTPγS (50 nCi per tube), and the reaction was terminated after 45 minutes incubation at 30 °C by rapid filtration through GF/C glass filters using a 24-well Brandel cell harvester (Alpha Biotech, Glasgow, UK). […] Dried filters were added to 3 mL of Ultima Gold^TM XR (PerkinElmer Life Sciences, Beaconsfield, UK) and [^35S]GTPγS binding was determined by liquid scintillation spectrometry.
All data are presented as means ± SEM of at least three independent experiments. Data analysis and curve fitting was carried out using the GraphPad Prism software package version 5.0b (GraphPad, San Diego). […] In case of inhibition experiments with antagonists an equivalent analysis was followed to fit an inverse sigmoidal curve. To perform the statistical analysis of curve parameters, data from multiple experiments were fitted independently and resulting curve fit values were analysed with indicated tests. For radioligand binding data, saturation binding curves were generated by fitting the specific binding, which was obtained by subtracting non-specific from total binding, to a one site specific binding model that allows calculation of Kd values for the radioligand at wild type and mutant receptors. To determine affinity of unlabelled ligands, data obtained in displacement assays were fit to an inverse three parameter sigmoidal curve constrained by radioligand affinity and concentration to allow for Ki calculation.

[3] = molecular target: GPR84-Cys^352Ile Gαi2 fusion protein (Homo sapiens, UniProt Q9NQS5); experiment: [3H]G9543 radioligand binding (saturation and displacement), GPR84-Cys352Ile Gαi2 fusion protein; set-up: Cys352Ile Gαi2 (fusion partner, same polypeptide); expressed in transfected cells; host or cells: membranes of Flp-In T-REx 293 cells, doxycycline-induced; details: displacement assay
Experimental: [^3H]G9543 is an analog of compounds 104, 107 and 161 with the same characteristic 2-(substituted-alkoxy)-9-substituted-6,7-dihydro-pyrimido[6,1-a]isoquinolin-4-one chemotype. […] Binding was initiated by the addition of membranes (5 µg of protein per tube). All assays were performed at 25 °C for 1 h before termination by the addition of ice-cold phosphate-buffered saline and vacuum filtration through GF/C glass filters using a 24-well Brandel cell harvester (Alpha Biotech, Glasgow, UK). Each reaction tube was washed three times with ice-cold PBS. The filters were allowed to dry for 2–3 h and then placed in 3 ml of Ultima Gold^TM XR. Radioactivity was quantified by liquid scintillation spectrometry. Specific binding was defined as the difference between binding detected in the presence and absence of 1 µM compound 104.
All data are presented as means ± SEM of at least three independent experiments. Data analysis and curve fitting was carried out using the GraphPad Prism software package version 5.0b (GraphPad, San Diego). For functional assays the concentration-response data were plotted on a log axis, with the untreated vehicle control plotted at 1 log unit lower than the lowest ligand concentration, and fitted to a three parameter sigmoidal curve with the Hill slope constrained to equal 1. In case of inhibition experiments with antagonists an equivalent analysis was followed to fit an inverse sigmoidal curve. To perform the statistical analysis of curve parameters, data from multiple experiments were fitted independently and resulting curve fit values were analysed with indicated tests. For radioligand binding data, saturation binding curves were generated by fitting the specific binding, which was obtained by subtracting non-specific from total binding, to a one site specific binding model that allows calculation of Kd values for the radioligand at wild type and mutant receptors. To determine affinity of unlabelled ligands, data obtained in displacement assays were fit to an inverse three parameter sigmoidal curve constrained by radioligand affinity and concentration to allow for Ki calculation.

wild type GPR84 = test system: wild type GPR84; set-up: method as in PMID 25425658; details: cited from earlier work

Chain of GPR84-Cys^352Ile Gαi2 fusion protein (Q9NQS5 2-396): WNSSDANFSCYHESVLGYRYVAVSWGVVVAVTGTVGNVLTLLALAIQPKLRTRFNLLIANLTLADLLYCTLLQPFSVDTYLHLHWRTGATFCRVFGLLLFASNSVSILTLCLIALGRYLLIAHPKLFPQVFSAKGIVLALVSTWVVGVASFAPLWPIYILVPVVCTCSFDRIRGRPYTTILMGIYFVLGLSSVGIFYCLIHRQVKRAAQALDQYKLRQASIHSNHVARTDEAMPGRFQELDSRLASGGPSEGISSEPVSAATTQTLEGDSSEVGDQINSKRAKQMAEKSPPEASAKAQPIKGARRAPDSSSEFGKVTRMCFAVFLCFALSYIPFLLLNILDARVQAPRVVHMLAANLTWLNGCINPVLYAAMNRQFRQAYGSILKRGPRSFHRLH
T1 sequence (Q9NQS5 whole entry): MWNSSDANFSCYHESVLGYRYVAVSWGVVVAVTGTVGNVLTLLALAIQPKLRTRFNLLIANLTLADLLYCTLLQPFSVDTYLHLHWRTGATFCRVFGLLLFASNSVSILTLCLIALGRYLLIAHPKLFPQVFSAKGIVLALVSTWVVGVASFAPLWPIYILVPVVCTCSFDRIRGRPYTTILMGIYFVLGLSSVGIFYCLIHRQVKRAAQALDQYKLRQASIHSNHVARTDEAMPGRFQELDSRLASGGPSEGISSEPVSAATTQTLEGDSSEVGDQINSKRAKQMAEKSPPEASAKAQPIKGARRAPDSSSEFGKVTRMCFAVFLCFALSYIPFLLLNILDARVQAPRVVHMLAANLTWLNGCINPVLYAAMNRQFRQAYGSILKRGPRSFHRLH

Compound: O=c1nc(OC[C@@H]2COCCO2)cc2n1CCc1cc(C#CC3CC3)ccc1-2 [GLPG1205]
- efficacy in patients with ulcerative colitis ([1]; 12 weeks of chronic dosing): did not show efficacy
- safety and tolerability ([1]; patients with ulcerative colitis): safe and tolerable

Compound: O=c1nc(OC[C@H]2COCCO2)cc2n1CCc1cc(OCc3noc(C4CC4)n3)ccc1-2 [Compound 104, 9-(5-cyclopropyl-[1,2,4]oxadiazol-3-ylmethoxy)-2-((R)-1-[1,4]dioxan-2-ylmethoxy)-6,7-dihydro-pyrimido[6,1-a]isoquinolin-4-one]
- ability to limit [35S]GTPγS binding induced by EC80 concentrations of C10 (50 μM), embelin (3 μM) and DIM (5 μM) [2]: more potent than 161
- ability to compete with [3H]G9543 binding [3]: competed fully and effectively
- Ki ([3]; read-out: pKi, competition with [3H]G9543 (converted)): 1.86 nM

Compound: CCCCCCCCCCN [decylamine]
- response of wild type GPR84 (wild type GPR84): failed to respond
